The target of the assay is T1, PsPto-PscA-LBD (Pseudomonas syringae group genomosp. 3, UniProt Q882Z2).
T1 construct: host E. coli BL21(DE3)
T1 sequence (Q882Z2 30-278): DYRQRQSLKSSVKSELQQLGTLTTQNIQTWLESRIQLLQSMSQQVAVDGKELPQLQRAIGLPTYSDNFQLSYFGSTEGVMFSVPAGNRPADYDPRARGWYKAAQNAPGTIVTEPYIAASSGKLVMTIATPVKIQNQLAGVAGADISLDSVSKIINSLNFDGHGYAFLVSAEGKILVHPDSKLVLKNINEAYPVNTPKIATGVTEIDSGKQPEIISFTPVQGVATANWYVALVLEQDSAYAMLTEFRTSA
Briefly: isothermal titration calorimetry. It counts as binding. Conditions: read-out: Mean KD (μM) ± SEM. An excerpt: isothermal titration calorimetry on PsPto-PscA-LBD
In general terms: Isothermal titration calorimetry measures the heat released or taken up as one component is titrated into another.
Turning to `N[C@@H](CCC(=O)O)C(=O)O` [L-Glu], the Kd (usually the equilibrium constant for the complex coming apart) worked out at 3.4 ± 0.1 µM.
The value for `N[C@@H](CC(=O)O)C(=O)O` [L-Asp] was 1.2 ± 0.1 µM; that for `N[C@H](CC(=O)O)C(=O)O` [D-Asp] was 1.2 ± 0.1 µM.
